Data taken from PubChem BioAssay (NCI).
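Each compound was tested at five concentrations against cells in 96-well plates for 48 hours. Definition used: TGI = concentration required for complete inhibition of growth.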

Key:
Assay in all cases: NCI tumour cell line growth inhibition, 48 h
[1] = test system: 786-0 renal
[2] = test system: A498 renal
[3] = test system: A549 NSCLC
[4] = test system: ACHN renal
[5] = test system: BT-549 breast
[6] = test system: CAKI-1 renal
[7] = test system: CCRF-CEM leukemia
[8] = test system: COLO 205 colon
[9] = test system: DU-145 prostate
[10] = test system: EKVX NSCLC
[11] = test system: HCC-2998 colon
[12] = test system: HCT-116 colon
[13] = test system: HCT-15 colon
[14] = test system: HL-60(TB) leukemia
[15] = test system: HOP-62 NSCLC
[16] = test system: HS 578T breast
[17] = test system: HT29 colon
[18] = test system: IGROV1 ovarian
[19] = test system: K-562 leukemia
[20] = test system: KM12 colon
[21] = test system: LOX IMVI melanoma
[22] = test system: M14 melanoma
[23] = test system: MCF7 breast
[24] = test system: MDA-MB-231 breast
[25] = test system: MDA-MB-435
[26] = test system: MDA-N
[27] = test system: MOLT-4 leukemia
[28] = test system: NCI-H226 lung
[29] = test system: NCI-H23 lung
[30] = test system: NCI-H460 lung
[31] = test system: NCI/ADR-RES ovarian
[32] = test system: OVCAR-3 ovarian
[33] = test system: OVCAR-4 ovarian
[34] = test system: OVCAR-5 ovarian
[35] = test system: OVCAR-8 ovarian
[36] = test system: PC-3 prostate
[37] = test system: RPMI-8226 leukemia
[38] = test system: RXF 393 renal
[39] = test system: SF-268 CNS
[40] = test system: SF-295 CNS
[41] = test system: SF-539 CNS
[42] = test system: SK-MEL-2 melanoma
[43] = test system: SK-MEL-28 melanoma
[44] = test system: SK-MEL-5 melanoma
[45] = test system: SK-OV-3 ovarian
[46] = test system: SN12C renal
[47] = test system: SNB-19 CNS
[48] = test system: SNB-75 CNS
[49] = test system: SR leukemia
[50] = test system: SW-620 colon
[51] = test system: T-47D breast
[52] = test system: TK-10 renal
[53] = test system: U251 CNS
[54] = test system: UACC-257 melanoma
[55] = test system: UACC-62 melanoma
[56] = test system: UO-31 renal

## CC(C)(C)[Si](C)(C)OC1(CCc2ccccc2OS(=O)(=O)C(F)(F)F)CCCC=C1COCc1ccccc1 (stereo unspecified)
[1]
  TGI: > 100 µM
[2]
  TGI: > 100 µM
[3]
  TGI: > 100 µM
[4]
  TGI: > 50.9 µM
[5]
  TGI: > 100 µM
[6]
  TGI: > 100 µM
[7]
  TGI: > 76.4 µM
[8]
  TGI: > 100 µM
[9]
  TGI: > 100 µM
[10]
  TGI: > 100 µM
[11]
  TGI: > 100 µM
[12]
  TGI: > 100 µM
[13]
  TGI: > 100 µM
[14]
  TGI: > 55.3 µM
[15]
  TGI: > 100 µM
[16]
  TGI: > 100 µM
[17]
  TGI: > 100 µM
[18]
  TGI: > 100 µM
[19]
  TGI: > 100 µM
[20]
  TGI: > 100 µM
[21]
  TGI: > 100 µM
[22]
  TGI: > 100 µM
[23]
  TGI: > 54.8 µM
[24]
  TGI: > 100 µM
[25]
  TGI: > 100 µM
[26]
  TGI: > 100 µM
[27]
  TGI: > 62.3 µM
[28]
  TGI: > 100 µM
[29]
  TGI: > 100 µM
[30]
  TGI: > 100 µM
[31]
  TGI: > 100 µM
[32]
  TGI: > 100 µM
[33]
  TGI: > 100 µM
[34]
  TGI: > 100 µM
[35]
  TGI: > 100 µM
[36]
  TGI: > 100 µM
[37]
  TGI: > 52.7 µM
[38]
  TGI: 90.8 µM
[39]
  TGI: > 100 µM
[40]
  TGI: > 100 µM
[41]
  TGI: > 100 µM
[42]
  TGI: > 100 µM
[43]
  TGI: > 100 µM
[44]
  TGI: > 100 µM
[45]
  TGI: > 100 µM
[46]
  TGI: > 100 µM
[47]
  TGI: > 100 µM
[48]
  TGI: > 100 µM
[49]
  TGI: > 100 µM
[50]
  TGI: > 100 µM
[51]
  TGI: > 100 µM
[52]
  TGI: > 100 µM
[53]
  TGI: > 100 µM
[54]
  TGI: > 100 µM
[55]
  TGI: > 53 µM
[56]
  TGI: > 100 µM
